These results are taken from US20250171462A1 (NICO Therapeutics, Inc., priority 2022, published 2025).

Structures are written as SMILES. Like-named read-outs stand apart in the source and are kept apart here.

This test has as its target T1, full-length SARM1 (FL-SARM1) (Homo sapiens, UniProt Q6SZW1).
T1 sequence (Q6SZW1 28-724): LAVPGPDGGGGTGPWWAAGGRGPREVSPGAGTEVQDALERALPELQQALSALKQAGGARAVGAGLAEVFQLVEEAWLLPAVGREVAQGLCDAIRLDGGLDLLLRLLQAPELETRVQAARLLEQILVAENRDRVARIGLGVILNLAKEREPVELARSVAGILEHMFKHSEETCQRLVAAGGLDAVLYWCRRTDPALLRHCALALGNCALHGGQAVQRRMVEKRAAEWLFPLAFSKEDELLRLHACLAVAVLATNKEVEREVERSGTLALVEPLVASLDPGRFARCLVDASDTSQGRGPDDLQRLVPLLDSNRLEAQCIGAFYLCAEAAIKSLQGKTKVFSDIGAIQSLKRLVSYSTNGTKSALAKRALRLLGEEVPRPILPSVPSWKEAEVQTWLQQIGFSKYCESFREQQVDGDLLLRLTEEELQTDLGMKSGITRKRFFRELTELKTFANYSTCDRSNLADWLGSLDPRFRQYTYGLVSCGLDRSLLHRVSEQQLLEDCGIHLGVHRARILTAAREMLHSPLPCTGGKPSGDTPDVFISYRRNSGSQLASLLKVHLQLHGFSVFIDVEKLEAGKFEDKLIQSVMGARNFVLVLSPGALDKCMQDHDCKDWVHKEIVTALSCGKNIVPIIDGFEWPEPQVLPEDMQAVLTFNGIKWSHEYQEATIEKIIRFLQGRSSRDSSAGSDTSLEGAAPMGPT
The experiment in a line: FL-SARM1 cellular lysate assay (NAD/NADH-Glo detection of remaining NAD+, NMN-activated).

[1] abbreviates: Activity (μM) (IC50), 11 point curve.
Setting [2] is: read-out: Activity (IC50 class), 11 point curve.
Where [3] appears, read: Activity (IC50 class), 11 point curve.

Consider `CCc1ccc(-c2cc(NC(=O)N3C4C[C@@H](C)C[C@H]3C4)ccc2C)nn1` [Example 234, cis-N-[3-(6-ethylpyridazin-3-yl)-4-methylphenyl]-3-methyl-6-azabicyclo[3.1.1]heptane-6-carboxamide], for which the IC50 under setting [1] was determined as 0.4 µM and the half-maximal inhibitory concentration (IC50) under setting [2] fell in the range of 0.0001 to 1 µM.

In the case of `Cc1ccc(NC(=O)N2C3CC(C)CC2(C(C)O)C3)cc1-c1ncc(F)cn1` (single isomer, unassigned) [Example 194, cis-N-(3-(5-fluoropyrimidin-2-yl)-4-methylphenyl)-1-(1-hydroxyethyl)-3-methyl-6-azabicyclo[3.1.1]heptane-6-carboxamide], the half-maximal inhibitory concentration (IC50) is, setting by setting: under setting [1], 0.01 µM; under setting [2], 0.0001 to 1 µM.

On to `Cc1cc(F)c(NC(=O)N2C3C[C@@H](C4CC4)C[C@H]2C3)cc1-c1cccnn1` [Example 241, cis-3-cyclopropyl-N-(2-fluoro-4-methyl-5-pyridazin-3-ylphenyl)-6-azabicyclo[3.1.1]heptane-6-carboxamide], for which the 50% inhibitory concentration (IC50) is, setting by setting: under setting [1], 0.09 µM; under setting [2], 0.0001 to 1 µM.

With `Cc1ccc(NC(=O)[C@@H]2CC2(F)F)cc1-c1ccc(Cl)cn1` [Example 160, (1S)-N-[3-(5-chloropyridin-2-yl)-4-methylphenyl]-2,2-difluorocyclopropane-1-carboxamide], the IC50 was 1 to 10 µM under setting [3] and 2.5 µM under setting [1].

On to `Cc1ccc(NC(=O)C2CC3CC[C@@H]2C3)cc1-c1ccccn1` (single isomer, unassigned) [Example 140], for which the IC50 is 0.9 µM under setting [1] and 0.0001 to 1 µM under setting [2].

For the molecule `Cc1ccc(NC(=O)[C@@H]2C[C@H]3C[C@H]32)cc1-c1ccccn1` (racemic) [Example 116, trans-N-(4-methyl-3-pyridin-2-ylphenyl)bicyclo[2.1.0]pentane-2-carboxamide], the IC50 is 1 to 10 µM under setting [3] and 7.4 µM under setting [1].

As for `Cc1cc(F)c(NC(=O)N2CC3CC2c2ccccc23)cc1-c1cccnn1` (single isomer, unassigned) [Example 201, N-(2-fluoro-4-methyl-5-pyridazin-3-ylphenyl)-9-azatricyclo[6.2.1.02,7]undeca-2(7),3,5-triene-9-carboxamide], the IC50 reads like this: under setting [3], 1 to 10 µM; under setting [1], 2 µM.

For the molecule `Cc1ccc(NC(=O)N2[C@@H]3C[C@@H](C)C[C@H]2C3)cc1-c1nccnc1C(F)(F)F` [Example 229, cis-3-methyl-N-[4-methyl-3-[3-(trifluoromethyl)pyrazin-2-yl]phenyl]-6-azabicyclo[3.1.1]heptane-6-carboxamide], the IC50 is 0.2 µM under setting [1] and 0.0001 to 1 µM under setting [2].

With `Cc1ccc(NC(=O)N2C3CCCC2C3)cc1-c1ncc(F)cc1F` [Example 248, N-[3-(3,5-difluoropyridin-2-yl)-4-methylphenyl]-6-azabicyclo[3.1.1]heptane-6-carboxamide], the IC50 reads like this: under setting [1], 0.2 µM; under setting [2], 0.0001 to 1 µM.

In the case of `Cc1ccc(NC(=O)N2[C@@H]3C[C@@H](C)C[C@H]2C3)cc1-c1cc(OCF)cnn1` [Example 185, cis-N-(3-(5-(fluoromethoxy)pyridazin-3-yl)-4-methylphenyl)-3-methyl-6-azabicyclo[3.1.1]heptane-6-carboxamide], the IC50 is 0.05 µM under setting [1] and 0.0001 to 1 µM under setting [2].

Consider `Cc1ccc(NC(=O)N2C[C@@H]3C[C@H]2CN3c2ccccc2)cc1-c1ccccn1` [Example 13, (1S,4S)-N-(4-methyl-3-(pyridin-2-yl)phenyl)-5-phenyl-2,5-diazabicyclo[2.2.1]heptane-2-carboxamide], for which the IC50 runs as follows: under setting [1], 0.7 µM; under setting [2], 0.0001 to 1 µM.

For the molecule `Cc1ccc(NC(=O)N2C3CC2CN(c2ccn(C)n2)C3)cc1-c1ccccn1` [Example 85, 3-(1-methylpyrazol-3-yl)-N-(4-methyl-3-pyridin-2-ylphenyl)-3,6-diazabicyclo[3.1.1]heptane-6-carboxamide], the IC50 is greater than 10 µM under setting [3] and 23 µM under setting [1].

Consider `COc1cccnc1-c1cc(NC(=O)N2C3CCCC2C3)ccc1C` [Example 58, N-(3-(3-methoxypyridin-2-yl)-4-methylphenyl)-6-azabicyclo[3.1.1]heptane-6-carboxamide], for which the IC50 by setting is: under setting [3], greater than 10 µM; under setting [1], 12 µM.

In the case of `O=C(Nc1ccc(C2CC2)c(-c2ccc(F)cn2)c1)N1C2CCCC1C2` [Example 36, N-(4-cyclopropyl-3-(5-fluoropyridin-2-yl)phenyl)-6-azabicyclo[3.1.1]heptane-6-carboxamide], the IC50 under setting [3] lay within 1 to 10 µM and the IC50 under setting [1] amounted to 1.1 µM.

In the case of `Cc1ccc(NC(=O)N2CCCC3CC32)cc1-c1ccccn1` (centres unmarked) [Example 99, N-(4-methyl-3-pyridin-2-ylphenyl)-2-azabicyclo[4.1.0]heptane-2-carboxamide], the IC50 is greater than 10 µM under setting [3] and 18 µM under setting [1].

`Cc1ccc(NC(=O)[C@H]2C[C@@H](C(F)(F)F)CN2c2ncn(C)n2)cc1-c1ncc(F)cn1` [Example 175, (2R,4R)—N-(3-(5-fluoropyrimidin-2-yl)-4-methylphenyl)-1-(1-methyl-1H-1,2,4-triazol-3-yl)-4-(trifluoromethyl)pyrrolidine-2-carboxamide] came in with a concentration for half-maximal inhibition (IC50) under setting [3] of 1 to 10 µM and a half-inhibitory concentration (IC50) under setting [1] of 2.4 µM.

In the case of `COc1nccnc1-c1cc(NC(=O)N2[C@@H]3C[C@@H](C)C[C@H]2C3)ccc1C` [Example 219, cis-N-[3-(3-methoxypyrazin-2-yl)-4-methylphenyl]-3-methyl-6-azabicyclo[3.1.1]heptane-6-carboxamide], the IC50 runs as follows: under setting [3], 1 to 10 µM; under setting [1], 1 µM.

On to `COC(C)[C@@]12CC(C[C@@H](C)C1)N2C(=O)Nc1ccc(C)c(-c2ncc(F)cn2)c1` (single isomer, unassigned) [Example 191, cis-N-(3-(5-fluoropyrimidin-2-yl)-4-methylphenyl)-1-(1-methoxyethyl)-3-methyl-6-azabicyclo[3.1.1]heptane-6-carboxamide], for which the IC50 under setting [1] worked out at 0.0009 µM and the IC50 under setting [2] is 0.0001 to 1 µM.

In the case of `Cc1ccc(NC(=O)N2C3CCCC2C3)cc1-c1ncc(F)c(C#N)n1` [Example 251, N-[3-(4-cyano-5-fluoropyrimidin-2-yl)-4-methylphenyl]-6-azabicyclo[3.1.1]heptane-6-carboxamide], the IC50 under setting [3] was in the range of 1 to 10 µM and the IC50 under setting [1] amounted to 1 µM.

In the case of `Cc1ccc(NC(=O)[C@@H]2C[C@H]3CC[C@@H]2C3)cc1-c1ccccn1` (single isomer, unassigned) [Example 138, cis-N-(4-methyl-3-pyridin-2-ylphenyl)bicyclo[2.2.1]heptane-2-carboxamide], the half-maximal inhibitory concentration (IC50) under setting [1] came out at 0.7 µM and the IC50 under setting [2] was in the range of 0.0001 to 1 µM.

Turning to `Cc1ccc(NC(=O)N2C3CCCC2C3)cc1-c1ncccc1C1CC1` [Example 32, N-(3-(3-cyclopropylpyridin-2-yl)-4-methylphenyl)-6-azabicyclo[3.1.1]heptane-6-carboxamide], the IC50 runs as follows: under setting [3], 1 to 10 µM; under setting [1], 6.1 µM.

Turning to `Cc1ccc(NC(=O)N2C3CCCC2C3)cc1-c1ccc(F)cn1` [Example 40, N-(3-(5-fluoropyridin-2-yl)-4-methylphenyl)-6-azabicyclo[3.1.1]heptane-6-carboxamide], the half-inhibitory concentration (IC50) is 0.08 µM under setting [1] and 0.0001 to 1 µM under setting [2].

`Cc1ccc(NC(=O)C2CCC[C@@H](C)N2c2ccccn2)cc1-c1ncc(F)cn1` (mixture of isomers) [Example 258, cis-N-(3-(5-fluoropyrimidin-2-yl)-4-methylphenyl)-6-methyl-1-(pyridin-2-yl)piperidine-2-carboxamide]: the IC50 runs as follows: under setting [3], 1 to 10 µM; under setting [1], 2.4 µM.

With `COC(C)[C@@]12CC(C[C@@H](C)C1)N2C(=O)Nc1ccc(C(F)(F)F)c(-c2nccnn2)c1` (single isomer, unassigned) [Example 212, cis-N-(3-(1,2,4-triazin-3-yl)-4-(trifluoromethyl)phenyl)-1-(1-methoxyethyl)-3-methyl-6-azabicyclo[3.1.1]heptane-6-carboxamide], the IC50 is, setting by setting: under setting [3], 1 to 10 µM; under setting [1], 9.6 µM.

Regarding `Cc1ccc(NC(=O)[C@H]2CC[C@@H](C)N2c2ccc(F)cn2)cc1-c1ncc(F)cn1` [Example 316], the IC50 was 1 to 10 µM under setting [3] and 1.7 µM under setting [1].

For `Cc1ccc(NC(=O)[C@@H]2CC[C@@H](C3CC3)N2c2ccccn2)cc1-c1ncc(F)cn1` (racemic) [Example 274, trans-5-cyclopropyl-N-(3-(5-fluoropyrimidin-2-yl)-4-methylphenyl)-1-(pyridin-2-yl)pyrrolidine-2-carboxamide], the IC50 is 1 to 10 µM under setting [3] and 1.2 µM under setting [1].

As to `Cc1cnc(-c2cc(NC(=O)N3C4CCCC3C4)ccc2C)nn1` [Example 180, N-(4-methyl-3-(6-methyl-1,2,4-triazin-3-yl)phenyl)-6-azabicyclo[3.1.1]heptane-6-carboxamide], the half-maximal inhibitory concentration (IC50) under setting [1] is 0.9 µM and the IC50 under setting [2] is 0.0001 to 1 µM.

`O=C(Nc1ccc(C2CC2)c(-c2ccccn2)c1)N1C2CCCC1C2` [Example 34, N-(4-cyclopropyl-3-(pyridin-2-yl)phenyl)-6-azabicyclo[3.1.1]heptane-6-carboxamide]: the IC50 was 1 to 10 µM under setting [3] and 1.1 µM under setting [1].
